According to article PMC5321741, “Arylmethylamino steroids as antiparasitic agents” (Nature Communications, 2017):

How the values were obtained:
Assay type in all cases: cell-based
[1] = tested on: Penicillium chrysogenum JMRC:SF:10137; assay: spore inhibition test; settings: 48 h
Experimental: (§1) The following test organisms were used for their susceptibility to compounds 1o and 2o: Alternaria alternata JMRC:SF:09317, Arthroderma benhamiae JMRC:ST:35888, Aspergillus fumigatus JMRC:Afum:00073=ATCC 46645, Aspergillus terreus JMRC:SF:06307, Candida albicans JMRC:ST:35864, Lichtheimia corymbifera JMRC:SF:09682, Penicillium chrysogenum JMRC:SF:10137, Rhizopus arrhizus (syn. R. oryzae) JMRC:SF:05857=ATCC 56536, CBS 112.07.
(§2) Fungi were grown on 3% malt extract solidified medium for 1 to 2 weeks at room temperature. Then the plates were washed with 7 ml sterile distilled water, and the spore suspension was filtered through 4 layers of sterile Miracloth (Kalbiochem, USA) to remove the hyphae. The concentration of the spore suspension was set to 2 × 10^4 conidia ml^−1 for the in vitro assays.
(§3) The spore inhibition assay took place in 96-well microplates (flat base). 50 μl of the prepared spore suspension was seeded and then mixed with 50 μl of the respective inhibitor substance. Tests were started with end concentrations of 1 mg ml^−1 and were then reduced in a minimum of 10 halving steps. Thus a 2 mg ml^−1 stock solution diluted in half ten times with solvent (distilled water, 2% DMSO in distilled water, or 2% DMF in distilled water) and each 50 μl was transferred to 50 μl spore suspension. For each test substance, 12 holes on the microtiter plate were filled. After 24 h incubation (25 °C), the germination of the spores was macroscopically and microscopically examined directly in the microtiter plate via measurement of the optical density and light microscopy using an inverse stereomicroscope with subsequent photodocumentation, respectively. If necessary, the plates were further incubated for another 24 or 48 h, depending on the extent of fungal germination.

[2] = tested on: Aspergillus terreus JMRC:SF:06307; assay: spore inhibition test; settings: 48 h; start concentration 1 mg/ml (1o, 2o), 100 µg/ml (Amphotericin B)
Experimental: as §1, §2, §3

[3] = tested on: Candida albicans JMRC:ST:35864; assay: spore inhibition test; settings: 48 h
Experimental: as §1, §2, §3

[4] = tested on: Alternaria alternata JMRC:SF:09317; assay: spore inhibition test; settings: 48 h; start concentration 1 mg/ml (1o, 2o), 100 µg/ml (Amphotericin B)
Experimental: as §1, §2, §3

[5] = tested on: Aspergillus fumigatus JMRC:Afum:00073; assay: spore inhibition test; settings: 48 h; start concentration 1 mg/ml (1o, 2o), 100 µg/ml (Amphotericin B)
Experimental: as §1, §2, §3

[6] = tested on: Rhizopus arrhizus (syn. R. oryzae) JMRC:SF:05857; assay: spore inhibition test; settings: 48 h; start concentration 1 mg/ml (1o, 2o), 100 µg/ml (Amphotericin B)
Experimental: as §1, §2, §3

[7] = tested on: Arthroderma benhamiae JMRC:ST:35888; assay: spore inhibition test; settings: 72 h
Experimental: as §1, §2, §3

[8] = tested on: Lichtheimia corymbifera JMRC:SF:09682; assay: spore inhibition test; settings: 48 h; start concentration 1 mg/ml (1o, 2o), 100 µg/ml (Amphotericin B)
Experimental: as §1, §2, §3

HUVEC = assay: antiproliferative activity on HUVEC cells; settings: Homo sapiens, HUVEC, 72 h
Outline: (§4)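 K-562 and HeLa seeded at ∼10,000 cells/well; HeLa preincubated 48 h without compound before cytotoxicity testing. 72 h exposure at 37 °C, 5% CO2; K-562 counted by electronic cell analyzer, HUVEC and HeLa glutaraldehyde-fixed, methylene blue-stained, OD 660 nm; GI50 (antiproliferative) and CC50 (cytotoxicity) derived.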

K-562 = assay: antiproliferative activity on K-562 cells; settings: Homo sapiens, K562, 72 h
Outline: as §4

[9] = tested on: adult Schistosoma mansoni; assay: schistosome in vitro culture with inhibitor treatment; settings: for morphological effects (confocal laser scanning microscopy): 5 μM, 6–13 days; for starting concentration with negative influence on worm physiology: pairing stability, egg production, survival, bright-field microscopy
[10] = cytotoxicity on HeLa cells; settings: human, HeLa cells
Outline: as §4

[11] = start concentration 1 mg/ml (1o, 2o), 100 µg/ml (Amphotericin B)
[12] = start concentration 1 mg/ml, given in mg

Structure (SMILES): COc1ccc2c(c1)CCC1C2CC[C@@]2(C)C1CC[C@H]2NCc1cc2ccccc2cc1O (some centres unmarked) [1o]
- antifungal profile, 2nd value = optical density-based observation, Penicillium chrysogenum [1, 11]: 125
- antifungal profile, 1st value = microscopic visualization-based observation, Penicillium chrysogenum [1, 12]: 1 mg
- antifungal profile, 1st value = microscopic visualization-based observation, Aspergillus terreus [2]: 250
- antifungal profile, 2nd value = optical density-based observation, Aspergillus terreus [2]: 125
- antifungal profile, 2nd value = optical density-based observation, Candida albicans [3, 11]: 500
- antifungal profile, 1st value = microscopic visualization-based observation, Candida albicans [3, 12]: 1 mg
- antifungal profile, 1st value = microscopic visualization-based observation, Alternaria alternata [4]: 500
- antifungal profile, 2nd value = optical density-based observation, Alternaria alternata [4]: 250
- antifungal profile, 1st value = microscopic visualization-based observation, Aspergillus fumigatus [5]: 250
- antifungal profile, 2nd value = optical density-based observation, Aspergillus fumigatus [5]: 250
- antifungal profile, 1st value = microscopic visualization-based observation, Rhizopus arrhizus [6]: 500
- antifungal profile, 2nd value = optical density-based observation, Rhizopus arrhizus [6]: 500
- antifungal profile, 1st value = microscopic visualization-based observation, Arthroderma benhamiae [7, 11]: 500
- antifungal profile, 2nd value = optical density-based observation, Arthroderma benhamiae [7, 12]: 1 mg
- antifungal profile, 1st value = microscopic visualization-based observation, Lichtheimia corymbifera [8]: 500
- antifungal profile, 2nd value = optical density-based observation, Lichtheimia corymbifera [8]: 62.5
- GI50 (HUVEC): 108 µM
- GI50 (K-562): 5 µM
- morphological effects (confocal laser scanning microscopy) [9]: swellings and invaginations occurred at the tegument
- reduction of egg production and motility ([9]; 10 µM, starting from days 1 and 2): about 75%
- effect on survival ([9]; 20 µM, from day 2 on): nearly all worms were dead
- starting concentration with negative influence on worm physiology [9]: 5 μM
- CC50 at 72 h [10]: > 113 µM

Structure (SMILES): COc1ccc2c(c1)CCC1C2CC[C@@]2(C)C1CC[C@@H]2NCc1cc2ccccc2cc1O (some centres unmarked) [2o]
- antifungal profile, 1st value = microscopic visualization-based observation, Penicillium chrysogenum [1, 11]: 250
- antifungal profile, 2nd value = optical density-based observation, Penicillium chrysogenum [1, 11]: 125
- antifungal profile, 1st value = microscopic visualization-based observation, Aspergillus terreus [2]: 250
- antifungal profile, 2nd value = optical density-based observation, Aspergillus terreus [2]: 4
- antifungal profile, 1st value = microscopic visualization-based observation, Candida albicans [3, 11]: 500
- antifungal profile, 2nd value = optical density-based observation, Candida albicans [3, 11]: 250
- antifungal profile, 1st value = microscopic visualization-based observation, Alternaria alternata [4]: 125
- antifungal profile, 2nd value = optical density-based observation, Alternaria alternata [4]: 15,6
- antifungal profile, 1st value = microscopic visualization-based observation, Aspergillus fumigatus [5]: 250
- antifungal profile, 2nd value = optical density-based observation, Aspergillus fumigatus [5]: 125
- antifungal profile, 1st value = microscopic visualization-based observation, Rhizopus arrhizus [6]: 500
- antifungal profile, 2nd value = optical density-based observation, Rhizopus arrhizus [6]: 500
- antifungal profile, 1st value = microscopic visualization-based observation, Arthroderma benhamiae [7, 11]: 31.2
- antifungal profile, 2nd value = optical density-based observation, Arthroderma benhamiae [7, 11]: 2
- antifungal profile, 1st value = microscopic visualization-based observation, Lichtheimia corymbifera [8]: 62.5
- antifungal profile, 2nd value = optical density-based observation, Lichtheimia corymbifera [8]: 7.8
- GI50 (HUVEC): 13.8 µM
- GI50 (K-562): 2.5 µM
- morphological effects (confocal laser scanning microscopy) [9]: the diameter of the testicular lobes was reduced, the ovary was disorganized
- effect on survival ([9]; 10 µM): caused the death of the parasites within a week
- time to death of worms ([9]; 10 µM): ≤ 3 days
- time to death of worms ([9]; 20 µM): 1 days
- starting concentration with negative influence on worm physiology [9]: 1 μM
- CC50 at 72 h [10]: > 113 µM
